{"source": "patent US6939850B2", "about": "“Altered human interleukin-1β convertase (ICE), NEDD-2, and C. elegans ced-3 polypeptides and uses therefor” (Massachusetts Institute of Technology, priority 1992, dated 2005)", "key": {"[1]": {"tested_on": "lumbar motoneurons", "assay": "Naturally occurring lumbar motoneuron cell death in vivo", "set-up": "species or system chick", "protocol": "In the first model, embryos were treated with a single dose of an ICE inhibitor or control protease inhibitor on embryonic day 8 (E8), the time of maximum naturally occurring motoneuron cell death (Hamburger et al., J. Morph. 88:49-92 (1951)). Embryos treated in vivo with the peptide inhibitors appeared to develop normally and there were no gross abnormalties. […] 24 hours after treatment there is a similar reduction in the number of pyknotic cells and a significant increase in the number of healthy motoneurons (Table 6B). […] The ability of ICE inhibitors to block the naturally occurring cell death of interdigital cells in the developing limb was also studied. These cells undergo PCD as a means of sculpting the digits in many vertebrates. When embryos were treated with either ICE inhibitor on embryonic days, E6 and E7, there was a substantial reduction in the number of pyknotic cells between the digits of the hindlimb (FIG. 14).\nPeptides. Two peptide inhibitors of ICE, Acetyl-Tyr-Val-Ala-Asp-aldehyde (Ac-YVAD-CHO) and Acetyl-Tyr-Val-Ala-Asp-chloromethylketone (Ac-YVAD-CMK) and two control peptide inhibitors, Acetyl-Leu-Leu-Arg-aldehyde (Ac-LLR-CHO; Leupeptin) and n-tosyl-Lys-chloromethyl-ketone (Tos-Lys-CMK) were synthesized by Bachem Biosciences (King of Prussia, Pa.) and shown by thin layer chromatography and HPLC to be greater than 98% pure. […] Methods for administration of peptides to examine effects on naturally occurring motoneuron cell death in vivo. Although cell death of lumbar motoneurons occurs between E6 and E12, the peak period of death (i.e., the greatest number of pyknotic cells) occurs on E8 (Oppenheim et al., J Comp. Neurol. 177:87-112 (1978)). For these experiments, embryos were given a single administration of an agent on E8 0 hr and sacrificed 15 hours later. […] Ac-YVAD-CMK and Tos-Lys-CMK were administered in a solution of DMSO/BSA, whereas Ac-YVAD-CHO and leupeptin (Sigma) were in BSA alone. The solutions (50-100 μl) were dropped onto the highly vascularized chorioallantoic membrane through a window in the shell. The control groups included both DMSO and BSA or vehicle alone. Embryos were killed and staged by the Hamburger-Hamilton series (Hamburger and Hamilton, J. Morph. 88:49-92 (1951)). The thoraco-lumbar spinal cord was dissected, fixed in Camoys or Bouins fixative, processed for paraffin histology, serially sectioned (10-12 μm) and stained with either thionin or hematoxylin and eosin. Pyknotic motoneurons were identified based on criteria previously described (Chu-Wang and Oppenheim, J. Comp. Neurol. 177:33-58 (1978); Clarke and Oppenheim In Methods in Cell Biology Series; Cell Death; eds: Schwartz and Osborne. Academic Press. New York, N.Y. In press.) and were counted in every 10th or 20th section through the entire lumbar enlargement. The total number of pyknotic cells were then estimated by multiplying these values by 10 or 20. All cell counts were performed by individuals blinded with regard to drug treatment of the embryos. Methods for limb bud removal experiments. A unilateral limb bud removal was performed on E2 as described previously (Oppenheim et al., J. Comp. Neurol. 177:87-112 (1978)). Because induced cell death following limb removal begins on E5 (before that there is no difference in the number of motoneurons between the operated or unoperated sides) embryos were given one treatment of Ac-YVAD-CHO (40 μg) or BSA (control) at E5-0 hr and another at E5-12 hours (total peptide administered was 80 μg). Animals were killed at E6-0 hr. Methods were the same as described above except the section thickness was 6-8 μm (see Method for Administration of Peptides, above). Methods for limb bud interdigital regions. […]"}, "[2]": {"tested_on": "undifferentiated neurons and precursor cells in the neural tube", "assay": "Cell death in the early neural tube in vivo", "set-up": "species or system chick"}, "[3]": {"details": "24 hours post treatment, mean ±SD"}}, "data": [{"substance": "Acetyl-Tyr-Val-Ala-Asp-aldehyde [Ac-YVAD-CHO]", "values": [{"measurement": "Pyknotic Lumbar Motoneurons on E8", "setting": "[1]; 15 hours post treatment, single administration of 400 μg on E8, mean ±SD", "value": "146 ± 35"}, {"measurement": "Healthy Motoneurons (lumbar) on E9", "setting": "[1]; [3]", "value": "15,680 ± 684"}, {"measurement": "Pyknotic Motoneurons (lumbar) on E9", "setting": "[1]; [3]", "value": "150 ± 30"}, {"measurement": "effectiveness for inhibition of motoneuron PCD in vivo", "setting": "[1]; FIG. 13", "value": "dose dependent"}, {"measurement": "survival promoting effects on floorplate or dorsal spinal cord cells", "setting": "[2]; compared to control animals", "value": "no survival promoting effects"}, {"measurement": "Pyknotic Cells in the Early Neural Tube, Dorsal Spinal Cord", "setting": "[2]; mean ±SD", "value": "1.350 ± 0.297"}, {"measurement": "Pyknotic Cells in the Early Neural Tube, Floor Plate", "setting": "[2]; mean ±SD", "value": "1.115 ± 0.246"}]}]}
